{
  "source": "ChEMBL document CHEMBL1141806",
  "about": "“Gloeolactone, a New Epoxy Lactone from a Blue-Green Alga” (J Nat Prod, 1998)",
  "key": {"[1]": {"assay": "Toxicity against brine shrimp at 125 ug/mL", "assay_type": "organism-based", "conditions": "artemia, in vivo; read-out: Activity"}, "Vibrio harveyi": {"system": "Vibrio harveyi", "assay": "Antimicrobial activity against Vibrio harveyi", "assay_type": "functional, organism-based"}},
  "note": "Activity calls are given as the source filed them. The calls are words filed in the database; no cut-off is given here.",
  "data": [
    {"smiles": "CC/C=C\\C[C@H]1O[C@@H]1/C=C/C1CCCCCCCC(=O)O1", "note": "(some centres not stated) [GLOEOLACTONE]", "values": [
      {"measurement": "mortality at 125 ug/mL", "setting": "[1]", "result": 100, "unit": "%"},
      {"measurement": "Activity", "setting": "Vibrio harveyi", "result": "inactive"}
    ]}
  ]
}
